Results reported in publication PMC7552967, “Anti-Melanoma Activities of Artemisone and Prenylated Amino-Artemisinins in Combination With Known Anticancer Drugs” (Frontiers in Pharmacology, 2020).

What was measured:
UACC62 melanoma cells = experiment: Sulforhodamine B (SRB) growth inhibition assay, UACC62; format: cell-based; conditions: Homo sapiens, UACC-62, mean ± SD
Text: (§1) The human cell lines TK10 (human kidney adenocarcinoma), UACC62 (human melanoma) and MCF7 (human breast adenocarcinoma) were obtained from the National Cancer Institute (NCI) as part of a panel widely studied for drug screening and molecular target identification. Melanoma (A375) and human embryonic kidney (HEK293) were acquired from the American Type Culture Collection; ATCC® CRL-1619™ and ATCC® CRL-1573™ respectively. The nontumorigenic human immortalized keratinocyte (HaCaT) cells were a kind donation by the School of Anatomical Sciences, Faculty of Health Sciences, University of the Witwatersrand, South Africa. […]
(§2) The growth inhibitory effects of the compounds were tested in the 3-cell line panel consisting of TK10 (renal), UACC62 (melanoma) and MCF7 (breast) cancer cells by Sulforhodamine B (SRB) assay. In addition, activity was also evaluated against HEK293 cells with the 3-(4,5-dimethylthiazol-2-yl)-2,5-diphenyl tetrazolium bromide (MTT) assay ([Mosmann, 1983]). […] The results were expressed as half maximal inhibitory concentrations (IC50) as described before ([Lewies et al., 2018]). […] After incubation, cell viability was determined using a microplate reader (BioTek®, Vermont, USA) at an excitation wavelength of 560 nm and emission wavelength of 630 nm with DMSO measured as a blank. […] Using the MTT assay data, IC50 values were calculated using GraphPad Prism 8. […]

[1] = tested on: HaCat normal keratinocytes; experiment: LDH release membrane integrity assay, HaCat; conditions: compounds at their IC50 concentrations, 24 h; combinations 1:1; relative to maximum release
Text: In order to determine cell membrane integrity, the CytoTox-ONE™ Homogeneous Membrane Integrity Assay (Promega, Madison, WO, USA) was employed. This fluorometric assay measures the release of LDH from cells with damaged cell membranes. […] The manufacturer’s instructions were followed to determine the fluorescence at an excitation wavelength of 560 nm and an emission wavelength of 590 nm. In order to calculate the percentage cytotoxicity, the average fluorescent values of the background medium were subtracted from all average fluorescent values of the experimental samples and the positive control. Cytotoxicity is expressed as a percentage relative to the positive control, which is assumed to be responsible for 100% LDH release. The fold increase in LDH release was taken as the indication of the selectivity toward melanoma cell membranes, calculated as the […]. All experiments were performed at least in triplicate and independently repeated. Statistical significant differences were calculated with one-way ANOVA.
Results are expressed relative to the untreated control and the maximum release sample, which was set as having 0% and 100% LDH release respectively. The LDH released from the nonmalignant HaCat cells and the A375 melanoma cells was then used to deduce the selectivity of the compounds against melanoma cell membranes.

[2] = tested on: MCF-7 breast cancer cells; experiment: Sulforhodamine B (SRB) growth inhibition assay, MCF7; format: cell-based; conditions: Homo sapiens, mean ± SD
Text: as §1, §2

SMILES | IC50 (UACC62 melanoma cells) [µM] | HaCat (% LDH release) [1] [%] | IC50 [2] [µM]
C[C@H]1[C@H](N2CCS(=O)(=O)CC2)O[C@@H]2O[C@@]3(C)CC[C@H]4[C@H](C)CC[C@@H]1[C@@]24OO3 [Artemisone 4, artemisone] | 32.7 ± 3.47 | 19 ± 0.79 | 2.75 ± 0.79
CC(C)=CCC/C(C)=C/CN1CCN([C@@H]2O[C@@H]3O[C@@]4(C)CC[C@H]5[C@H](C)CC[C@@H]([C@H]2C)[C@@]35OO4)CC1 [Geranylpiperazine-DHA 6, geranylpiperazine-DHA] |  | 17 ± 0.95 | 
C[C@@H]1CC[C@H]2[C@@H](C)C(=O)O[C@@H]3O[C@@]4(C)CC[C@@H]1[C@]32OO4 [Artemisinin 2, artemisinin] |  | 18 ± 0.84 | 
CC(C)=CCC/C(C)=C/CC/C(C)=C/CN1CCN([C@@H]2O[C@@H]3O[C@@]4(C)CC[C@H]5[C@H](C)CC[C@@H]([C@H]2C)[C@@]35OO4)CC1 [Farnesylpiperazine-DHA 7, farnesylpiperazine-DHA] | 2.15 ± 0.79 | 18 ± 0.67 | 1.56 ± 0.51
